Results on one compound are retold here after PMC8645336, “Benchmarking a highly selective USP30 inhibitor for enhancement of mitophagy and pexophagy” (Life Science Alliance, 2021).

What all share (test): biochemical
Holding throughout (set-up): Ubiquigent DUB profiler selectivity panel, remaining enzyme activity as % of control
Details in all cases: read-out: % of control remaining

One experiment addresses T1, CYLD (Homo sapiens, UniProt Q9NQC7).
T1 sequence (Q9NQC7 1-956): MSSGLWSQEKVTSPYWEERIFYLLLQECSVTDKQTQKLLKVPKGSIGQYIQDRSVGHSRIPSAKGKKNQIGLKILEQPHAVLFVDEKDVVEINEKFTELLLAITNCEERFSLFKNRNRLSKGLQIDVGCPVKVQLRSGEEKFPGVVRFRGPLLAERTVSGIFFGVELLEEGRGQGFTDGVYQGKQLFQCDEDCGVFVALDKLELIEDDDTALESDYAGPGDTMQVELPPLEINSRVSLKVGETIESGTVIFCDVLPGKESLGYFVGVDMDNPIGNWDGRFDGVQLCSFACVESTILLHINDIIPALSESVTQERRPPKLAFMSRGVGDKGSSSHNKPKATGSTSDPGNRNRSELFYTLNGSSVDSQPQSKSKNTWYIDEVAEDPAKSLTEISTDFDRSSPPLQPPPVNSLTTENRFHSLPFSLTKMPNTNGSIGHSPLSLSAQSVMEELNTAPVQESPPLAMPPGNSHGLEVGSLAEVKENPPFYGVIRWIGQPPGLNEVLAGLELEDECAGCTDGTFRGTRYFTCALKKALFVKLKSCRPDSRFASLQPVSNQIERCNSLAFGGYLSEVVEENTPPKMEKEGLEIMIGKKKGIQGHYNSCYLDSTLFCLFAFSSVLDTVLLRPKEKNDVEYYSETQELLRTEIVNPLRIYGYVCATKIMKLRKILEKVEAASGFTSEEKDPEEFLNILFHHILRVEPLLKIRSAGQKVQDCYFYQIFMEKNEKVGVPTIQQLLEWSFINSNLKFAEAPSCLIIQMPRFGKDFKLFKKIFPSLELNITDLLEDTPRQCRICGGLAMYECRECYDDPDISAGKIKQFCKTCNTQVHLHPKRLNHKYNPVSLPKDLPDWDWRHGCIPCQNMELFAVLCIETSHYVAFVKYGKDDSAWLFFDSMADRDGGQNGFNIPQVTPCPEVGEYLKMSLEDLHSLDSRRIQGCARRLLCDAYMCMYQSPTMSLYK
The procedure: (§1) Previous work has reported IC50 values for a series of benzosulphonamide inhibitors, of which all those <1 μM were screened for selectivity, in comparison to three other USP family members ([20], [21]). We have selected one of these compounds (CMPD-39, Fig 1A) for a more rigorous test of selectivity provided by the Ubiquigent DUB profiler screening platform comprising >40 DUBs. […] To test engagement of the inhibitor with USP30 applied to intact cells, we assayed competition with Ub-PA (Ub-propargylamide). Ub-PA covalently binds to the USP30 active site leading to a characteristic upshift on a SDS–PAGE gel ([22]). If a drug blocks access to the catalytic site, then the probe modification is blocked and the apparent molecular weight of USP30 shifts down accordingly. […] A robust proxy read-out for target engagement is the enhancement of TOMM20 ubiquitylation after mitochondrial depolarization ([6], [16]). This second assay indicates a maximal effect with 200 nM CMPD-39 applied to RPE1-YFP-PRKN cells (Fig 1D).  Figure 1. CMPD-39 is a selective USP30 inhibitor. (A) Chemical structure of CMPD-39. (B) DUB specificity screen (DUB profiler, Ubiquigent) with 1-100 μM CMPD-39. […] Samples were incubated with CMPD-39 for 2 h at the indicated concentrations, then incubated with HA-Ub-PA probe for 10 min at 37°C and immunoblotted as shown. Red arrow indicates unbound USP30; blue arrow represents probe bound USP30. (D) Inhibition of USP30 enhances the ubiquitylation of TOMM20 in YFP-PRKN over-expressing hTERT-RPE1 cells in a concentration dependent manner in response to mitophagy induction. Cells were treated for 1 h with DMSO or antimycin A and oligomycin A (AO; 1 μM each) in the absence or presence of CMPD-39 at the indicated concentrations, lysed, and analyzed by Western blotting. Black arrow indicates unmodified TOMM20, ubiquitylated species are indicated by red (mono-ubiquitylated) or blue arrow heads. […] Source data are available for this figure.

The target in the next experiment is USP1/UAF1 (Homo sapiens, UniProt O94782). On the procedure:
as §1

The target in a further experiment is T2, Ataxin3L (Homo sapiens, UniProt Q9H3M9).
T2 construct: gene ATXN3L
T2 sequence (Q9H3M9 1-355): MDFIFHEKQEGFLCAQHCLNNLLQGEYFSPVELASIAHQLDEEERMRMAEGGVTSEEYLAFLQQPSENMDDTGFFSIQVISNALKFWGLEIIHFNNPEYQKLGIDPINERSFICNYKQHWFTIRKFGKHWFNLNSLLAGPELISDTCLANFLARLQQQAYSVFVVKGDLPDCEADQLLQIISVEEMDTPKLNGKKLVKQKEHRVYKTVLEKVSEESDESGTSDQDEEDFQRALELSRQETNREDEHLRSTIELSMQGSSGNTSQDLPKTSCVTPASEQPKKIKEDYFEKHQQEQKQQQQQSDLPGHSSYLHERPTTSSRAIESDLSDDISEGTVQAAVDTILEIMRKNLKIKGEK
The procedure:
as §1

The target of a further experiment is USP11 (Homo sapiens, UniProt P51784). On the procedure:
as §1

Another experiment deals with T3, UCHL5 (Homo sapiens, UniProt Q9Y5K5).
T3 sequence (Q9Y5K5 1-329): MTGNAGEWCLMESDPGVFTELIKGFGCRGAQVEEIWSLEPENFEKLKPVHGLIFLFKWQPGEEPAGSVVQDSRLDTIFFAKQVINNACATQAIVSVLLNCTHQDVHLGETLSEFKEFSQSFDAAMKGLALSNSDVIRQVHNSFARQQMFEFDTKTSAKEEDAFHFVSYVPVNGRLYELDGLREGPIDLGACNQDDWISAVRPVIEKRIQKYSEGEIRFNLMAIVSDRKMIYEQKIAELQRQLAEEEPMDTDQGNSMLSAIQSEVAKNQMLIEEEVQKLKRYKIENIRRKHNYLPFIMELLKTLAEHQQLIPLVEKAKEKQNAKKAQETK
The procedure:
as §1

SMILES strings stand for the structures.

Sequence of USP1/UAF1 (O94782 whole entry): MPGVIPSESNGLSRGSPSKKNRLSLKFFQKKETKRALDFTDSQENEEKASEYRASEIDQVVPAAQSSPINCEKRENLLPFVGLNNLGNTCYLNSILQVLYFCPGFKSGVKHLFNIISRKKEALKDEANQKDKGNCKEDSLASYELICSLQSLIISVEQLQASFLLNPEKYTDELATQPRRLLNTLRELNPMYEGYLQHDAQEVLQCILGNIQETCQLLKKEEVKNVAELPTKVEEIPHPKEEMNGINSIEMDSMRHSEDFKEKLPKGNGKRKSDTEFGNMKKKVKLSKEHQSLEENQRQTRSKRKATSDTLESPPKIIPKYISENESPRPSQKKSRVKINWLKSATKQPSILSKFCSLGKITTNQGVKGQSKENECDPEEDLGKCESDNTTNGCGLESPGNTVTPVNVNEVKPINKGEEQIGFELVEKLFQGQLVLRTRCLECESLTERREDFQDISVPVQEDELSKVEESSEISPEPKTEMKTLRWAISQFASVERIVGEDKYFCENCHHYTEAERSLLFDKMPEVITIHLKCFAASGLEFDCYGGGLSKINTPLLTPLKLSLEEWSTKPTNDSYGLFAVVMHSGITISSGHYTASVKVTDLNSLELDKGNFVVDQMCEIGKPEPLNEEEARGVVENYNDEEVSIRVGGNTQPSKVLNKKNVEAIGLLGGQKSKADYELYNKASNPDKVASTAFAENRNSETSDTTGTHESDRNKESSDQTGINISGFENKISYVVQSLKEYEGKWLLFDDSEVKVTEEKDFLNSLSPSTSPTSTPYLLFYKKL
Sequence of USP1/UAF1 (Q8TAF3 whole entry partner): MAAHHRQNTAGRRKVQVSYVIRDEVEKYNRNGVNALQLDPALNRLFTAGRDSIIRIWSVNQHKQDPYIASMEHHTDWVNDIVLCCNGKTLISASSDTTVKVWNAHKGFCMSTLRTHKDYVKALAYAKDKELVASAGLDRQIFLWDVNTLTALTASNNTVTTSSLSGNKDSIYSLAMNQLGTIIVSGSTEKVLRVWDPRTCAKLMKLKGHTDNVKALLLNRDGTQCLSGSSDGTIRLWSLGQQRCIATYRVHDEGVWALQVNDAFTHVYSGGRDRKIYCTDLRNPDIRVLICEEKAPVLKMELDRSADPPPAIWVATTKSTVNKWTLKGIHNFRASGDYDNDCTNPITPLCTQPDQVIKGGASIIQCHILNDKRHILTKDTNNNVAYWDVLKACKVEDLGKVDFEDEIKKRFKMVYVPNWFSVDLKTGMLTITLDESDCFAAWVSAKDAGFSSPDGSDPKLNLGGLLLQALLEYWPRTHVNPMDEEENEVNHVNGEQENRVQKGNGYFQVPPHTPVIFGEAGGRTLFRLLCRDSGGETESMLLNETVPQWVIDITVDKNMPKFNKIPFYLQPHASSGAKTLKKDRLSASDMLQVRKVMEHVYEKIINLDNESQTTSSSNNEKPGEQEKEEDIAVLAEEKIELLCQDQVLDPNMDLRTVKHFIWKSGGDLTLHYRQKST
Sequence of USP11 (P51784 whole entry): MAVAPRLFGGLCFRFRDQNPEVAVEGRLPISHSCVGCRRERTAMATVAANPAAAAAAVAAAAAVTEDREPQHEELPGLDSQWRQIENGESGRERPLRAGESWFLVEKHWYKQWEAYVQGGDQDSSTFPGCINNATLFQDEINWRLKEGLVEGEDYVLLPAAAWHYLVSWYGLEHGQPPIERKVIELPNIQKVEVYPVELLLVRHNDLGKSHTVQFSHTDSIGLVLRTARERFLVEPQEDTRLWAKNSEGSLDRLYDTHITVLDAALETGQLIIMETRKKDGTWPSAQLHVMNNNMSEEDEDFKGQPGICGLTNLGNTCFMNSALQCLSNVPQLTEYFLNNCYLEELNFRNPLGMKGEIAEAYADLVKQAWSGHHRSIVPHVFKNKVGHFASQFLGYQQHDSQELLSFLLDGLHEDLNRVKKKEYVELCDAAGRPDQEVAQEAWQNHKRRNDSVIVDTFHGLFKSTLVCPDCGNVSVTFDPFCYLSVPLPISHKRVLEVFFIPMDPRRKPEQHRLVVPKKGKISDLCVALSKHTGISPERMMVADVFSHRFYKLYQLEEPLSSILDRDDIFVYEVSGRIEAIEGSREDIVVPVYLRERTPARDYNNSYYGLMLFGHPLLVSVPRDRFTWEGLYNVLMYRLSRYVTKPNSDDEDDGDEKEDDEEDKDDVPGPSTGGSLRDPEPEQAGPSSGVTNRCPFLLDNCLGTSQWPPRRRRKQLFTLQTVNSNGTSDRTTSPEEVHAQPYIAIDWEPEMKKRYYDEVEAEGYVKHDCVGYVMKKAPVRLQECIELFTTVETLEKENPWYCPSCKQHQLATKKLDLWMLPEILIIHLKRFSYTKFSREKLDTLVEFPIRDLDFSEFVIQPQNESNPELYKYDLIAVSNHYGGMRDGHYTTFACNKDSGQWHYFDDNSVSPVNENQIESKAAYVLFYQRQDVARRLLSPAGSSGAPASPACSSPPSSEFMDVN

Turning to `CC(C)(C)NS(=O)(=O)c1ccc(NC(=O)[C@H](Cc2ccccc2)NC(=O)c2ccc(F)cc2)cc1` [compound 39, CMPD-39], the remaining activity at 1 µM was found to be 107% at CYLD; 98.6% on USP1/UAF1; 103% at Ataxin3L; 103% on USP11; 107% on UCHL5. Also, the remaining activity at 10 µM was found to be 102% on CYLD; 95.6% at USP1/UAF1; 101% on Ataxin3L; 98.4% on USP11; 98% on UCHL5. In addition, the remaining activity at 100 µM was determined as 98% at CYLD; 97.4% on USP1/UAF1; 102% on Ataxin3L; 97.2% on USP11; 101% at UCHL5.
